Laboratory results from patent US5998377A, “Means for treating prostate cancer” (ASTA Medica Aktiengesellschaft, priority 1998, dated 1999).
Non-standard residues stand in square brackets, D forms with d. Residues, ends and D or L forms follow the SMILES beside them. dPhe(4-Cl) = N[C@H](Cc1ccc(Cl)cc1)C(=O)O; d2Nal = N[C@H](Cc1ccc2ccccc2c1)C(=O)O; dCit = NC(=O)NCCC[C@@H](N)C(=O)O; d3Pal = N[C@H](Cc1cccnc1)C(=O)O

Tests used:
BPH patients [1] = conditions: cited from earlier work
BPH patients [2] = assay: Clinical therapy of BPH with Cetrorelix (Example 1); format: in vivo, human; conditions: therapy regimen of 4 to 8 weeks
Procedure: The invention will be explained in detail using the following clinical results:
Cetrorelix is administered in a dose of 0.5 mg to 2 mg daily for 4 to 8 weeks for the therapy of BPH. A dose of 5 mg to 30 mg, dispensed once per week or every 10 days also over a time period of 4 to 8 weeks as well as one every two weeks or one injection per month of 20 mg to 60 mg can also decisively improve the clinical symptoms and signs. […] The prostate volume decreases by 20 to 40% during the treatment time of 4 to 8 weeks. […] In addition, at least 30% of the patients achieve an improvement of the urine flow of 6 ml/sec with this therapy. This is almost equivalent to an improvement like that associated with the golden standard operation, and in considerably shorter time. […] These clinical benefits continue for at least 3 to 6 months after therapy. This allows a long-term therapy of BPH with only an intermittent treatment of 2 to max. 4 injection cycles over 4 to 8 weeks.

[3] = tested on: prostate carcinoma patients; conditions: cited from earlier work
[4] = BPH patients, 500 μg every 12 hours for 4 weeks
[5] = prostate carcinoma patients, end of the 6 weeks of therapy

CC(=O)N[C@H](Cc1ccc2ccccc2c1)C(=O)N[C@H](Cc1ccc(Cl)cc1)C(=O)N[C@H](Cc1cccnc1)C(=O)N[C@@H](CO)C(=O)N[C@@H](Cc1ccc(O)cc1)C(=O)N[C@H](CCCNC(N)=O)C(=O)N[C@@H](CC(C)C)C(=O)N[C@@H](CCCNC(=N)N)C(=O)N1CCC[C@H]1C(=O)N[C@H](C)C(N)=O [Cetrorelix] (Ac-[d2Nal][dPhe(4-Cl)][d3Pal]SY[dCit]LRP[dA]-NH2)
testosterone levels, initially (BPH patients [1]; BPH patients (all patients), 500 μg every 12 hours, initially): lowering in testosterone levels to a castration level | prostate volume (BPH patients [1]; [4]): a decrease in prostate volume | symptoms of dysuria (BPH patients [1]; [4]): distinct decrease of the symptoms of dysuria | testosterone levels during treatment (BPH patients [1]; BPH patients, 500 μg every 12 hours for 4 weeks, no castration values during the last three weeks): fluctuated at subnormal levels | increase of the peak flow of the urine (BPH patients [2]): approximately 3 ml/sec | patients achieving an improvement of the urine flow of 6 ml/sec (BPH patients [2]): at least 30% | quality of life (BPH patients [2]): significant improvements as regards quality of life | sexual performance (BPH patients [2]): No limitations in sexual performance are observed | testosterone decrease (BPH patients [2]): Submaximal decreases of testosterone occur, but these are above those levels associated with castration | testosterone levels, initially ([3]; prostate carcinoma patients (all patients), 500 μg every 12 hours, initially): lowering in testosterone levels to a castration level | overall condition of the patient [3, 5]: considerable improvement | testosterone values at the end of therapy [3, 5]: at the castration levels
